Values quoted from earlier work as cited in patent US20150335679A1, “Methods and Compositions for Treating Malignancies with Dendritic Cells” (Kiromic, LLC, priority 2014, published 2015).
Where two headings read alike, the source gives them in different places.

Legend:
Treg = settings: low-dose
[1] = tested on: Tregs; breast tumor-reactive T cells
[2] = 50 mg orally daily for 3 months

## O=P1(N(CCCl)CCCl)NCCCO1 (stereo not drawn) [CYP, cyclophosphamide]
Treg
  Treg number and functionality: decreases
Tregs; 250 mg/m^2
  Treg suppressor function: impaired suppressor function
  duration of decreased Treg frequency: decreased Treg frequency up to day 71
Tregs; lower treatment arms
  Alpha-fetoprotein-specific T-cell responses: induced
Tregs; the two lower doses (150, 250 mg/m^2)
  absolute and relative frequency of Tregs in the blood of patients: induced a decrease
[1]; [2]
  course of Tregs: remained decreased until day 42, returning to pretreatment levels by day 84
  time to reduction of Tregs: ≤ 14 days
[1]; day 14, 27% before CYP treatment
  patients with endogenous breast tumor-reactive T cells: 73%
[1]; day 42
  patients with endogenous breast tumor-reactive T cells: 80%
[1]; day 84
  patients with endogenous breast tumor-reactive T cells: 88%
Advanced solid tumors; all CYP regimens (oral 50 mg/day, single i.v. 1,000 mg, or both) vs adenovirus only
  rates of disease control: higher rates of disease control
Advanced solid tumors; metronomic groups
  decrease of Treg numbers: most effective in decreasing Treg numbers
